Reference: paper PMC12276035, “Novel Para‐Phenylenediamine‐Based Derivatives as Receptor Tyrosine Kinase‐like Orphan Receptor 1 (ROR1) Inhibitors: An In Vitro Preliminary Characterization” (Chemmedchem, 2025)

How the values were obtained:
[1] = target: T1, ROR1 kinase domain (Homo sapiens, UniProt Q01973); assay: SPR assay on ROR1 kinase domain; format: binding; settings: SPR, KD ± SD, 0 to 100 μM, 25 °C; n.b. = no binding; read-out: Kinase domain KD
T1 construct: recombinant human ROR1 protein (aa 453‐783, His&GST Tag); His; GST; purchased Elabscience
T1 sequence (Q01973 453-783): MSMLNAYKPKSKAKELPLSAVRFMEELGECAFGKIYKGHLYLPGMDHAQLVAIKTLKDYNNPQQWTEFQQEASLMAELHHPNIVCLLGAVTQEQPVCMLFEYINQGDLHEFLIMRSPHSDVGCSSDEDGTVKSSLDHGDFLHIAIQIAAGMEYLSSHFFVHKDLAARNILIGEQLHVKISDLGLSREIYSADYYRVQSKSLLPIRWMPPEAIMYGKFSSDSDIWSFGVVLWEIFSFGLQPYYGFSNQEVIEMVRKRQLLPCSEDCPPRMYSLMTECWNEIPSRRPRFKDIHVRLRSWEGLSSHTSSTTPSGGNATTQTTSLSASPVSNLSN
Description: We performed molecular docking experiments to explore the binding mode of novel derivatives using the crystallographic structure of the protein co‐complexed with ponatinib, a known inhibitor of ROR1 (PDB code: 6TU9).^[ [30] ^] […] To evaluate the affinity of the synthesized molecules (10, 13, 14, 17–21, 26–29) for the protein counterpart, SPR assay was performed against kinase domain ROR1. Protein immobilization was achieved using the amide coupling method, and the molecules were tested at 10 different concentrations, ranging from 0 to 100 μM. Ponatinib was used as a positive control^[ [30] ^] (Table 1 ).
SPR spectroscopy analyses were conducted to evaluate the binding affinity of the synthesized compounds against ROR1 receptor using a Biacore T200 optical biosensor equipped with research‐grade CM5 sensor chips (Cytiva, Marlborough, USA). ROR1 kinase domain was immobilized on the CM5 sensor chip surface following standard amine‐coupling protocols. Specifically, kinasic domain was immobilized at pH 4.5 10 mM CH3COONa using a flow rate of 10 μL min^−1, achieving a density of around 20 kRU.
For the experiments, surfaces of ROR1, along with an unmodified reference surface, were prepared for simultaneous analyses. […] The compounds were injected in a series of concentrations (1:2 dilution, 10 different concentrations), spanning from 0 to 100 μM. The concentration series were prepared in 96‐well plates. SPR experiments were conducted at 25 °C, with a flow rate of 20 μL min^−1, allowing for 90 s of association monitoring and 400 s of dissociation monitoring. Changes in mass, reflective of the binding response, were recorded as resonance units (RU). K D values were determined using the Biaevaluation software performing a global fit of the double‐referenced association and dissociation data to a 1:1 interaction model^[ [43] ^] (see Figure S38, Supporting Information).

[2] = Liver microsomal stability; format: in vitro ADME, mouse
Description: To evaluate the metabolic stability of our hit compound and assess its drug‐likeness, we investigated the microsomal stability of 17 by incubating it with mouse liver microsomes. We monitored the loss of the compound over time under CYP‐mediated metabolic pathways (Figure 7A). The natural logarithm of the percentage remaining of the compound, calculated by comparing the concentration at each time point with the t0 sample, was plotted against time, yielding a linear regression (R ^2 = 0.98).
The liver microsomal stability assay of compound 17 was conducted as previously described.^[ [47] ^] Briefly, mouse (CD‐1) liver microsomes (Thermo Fisher Scientific, Bremen, Germany) were used, and the reaction was initiated by the addition of NADPH. The incubation was carried out 37 °C for 15, 30, 45, and 60 min in a Thermomixer comfort (Eppendorf, Hamburg, Germany). The reaction was stopped by the addition of ice‐cold methanol containing IS. Finally, the samples were centrifuged, and the supernatants were injected into the LC‐MS. […] All experiments were performed in triplicate, and results were expressed as the in vitro microsomal half‐life (t 1/2), calculated using the equation t 1/2 = 0.693/b, where b is the slope of the linear regression obtained by plotting the natural logarithm of the remaining parent compound fraction against incubation time.

Kd [1]: 12.1 ± 2.68 µM | degradation ([2]; after 60 min with mouse microsomes): ≈ 20% | half-life ([2]; mouse (CD‐1) liver microsomes, NADPH, 37 °C): ~3.3 h
SMILES: O=C(NCc1ccc(-c2ccccc2)cc1)Nc1ccc(NCC2CCNCC2)cc1C(F)(F)F [Compound 17]
